≈ marks a conversion by molar mass, not a printed value.
What was measured:
Assay type in all cases: functional
[1] = test system: Mycobacterium tuberculosis; test: Antimycobacterial activity against multi drug resistant Mycobacterium tuberculosis 9449/2006 after 21 days; settings: 9449/2006, 504 h
[2] = test system: Mycobacterium tuberculosis; test: Antimycobacterial activity against multi drug resistant Mycobacterium tuberculosis 9449/2006 after 14 days; settings: 9449/2006, 336 h
[3] = test system: Mycobacterium tuberculosis; test: Antimycobacterial activity against multi drug resistant Mycobacterium tuberculosis 7357/1998 after 21 days; settings: 7357/1998, 504 h
[4] = test system: Mycobacterium tuberculosis; test: Antimycobacterial activity against multi drug resistant Mycobacterium tuberculosis 7357/1998 after 14 days; settings: 7357/1998, 336 h
[5] = test system: Mycobacterium tuberculosis; test: Antimycobacterial activity against multi drug resistant Mycobacterium tuberculosis 8666/2010 after 14 days; settings: 8666/2010, 336 h
[6] = test system: Mycobacterium tuberculosis; test: Antimycobacterial activity against multi drug resistant Mycobacterium tuberculosis 8666/2010 after 21 days; settings: 8666/2010, 504 h
[7] = test system: Mycobacterium tuberculosis; test: Antimycobacterial activity against multi drug resistant Mycobacterium tuberculosis 234/2005 after 14 days; settings: 234/2005, 336 h
[8] = test system: Mycobacterium tuberculosis; test: Antimycobacterial activity against multi drug resistant Mycobacterium tuberculosis 234/2005 after 21 days; settings: 234/2005, 504 h
[9] = test system: Mycobacterium tuberculosis; test: Antimycobacterial activity against multi drug resistant Mycobacterium tuberculosis Praha 1 after 14 days; settings: Praha 1, 336 h
[10] = test system: Mycobacterium tuberculosis; test: Antimycobacterial activity against multi drug resistant Mycobacterium tuberculosis Praha 1 after 21 days; settings: Praha 1, 504 h
[11] = test system: Mycobacterium tuberculosis; test: Antimycobacterial activity against multi drug resistant Mycobacterium tuberculosis Praha 4 after 14 days; settings: Praha 4, 336 h
[12] = test system: Mycobacterium tuberculosis; test: Antimycobacterial activity against multi drug resistant Mycobacterium tuberculosis Praha 4 after 21 days; settings: Praha 4, 504 h

O=C(Nc1ccccc1)Oc1ccc(Cl)cc1C(=O)Nc1ccc(C(F)(F)F)cc1
MIC [1]: 1 µM (≈ 0.435 µg/mL) | MIC [2]: 1 µM (≈ 0.435 µg/mL) | MIC [3]: 1 µM (≈ 0.435 µg/mL) | MIC [4]: 0.5 µM (≈ 0.217 µg/mL) | MIC [5]: 0.5 µM (≈ 0.217 µg/mL) | MIC [6]: 1 µM (≈ 0.435 µg/mL) | MIC [7]: 1 µM (≈ 0.435 µg/mL) | MIC [8]: 1 µM (≈ 0.435 µg/mL) | MIC [9]: 0.5 µM (≈ 0.217 µg/mL) | MIC [10]: 1 µM (≈ 0.435 µg/mL) | MIC [11]: 0.5 µM (≈ 0.217 µg/mL) | MIC [12]: 1 µM (≈ 0.435 µg/mL)

O=C(NCCc1ccccc1)Oc1ccc(Cl)cc1C(=O)Nc1ccc(C(F)(F)F)cc1
MIC [1]: 2 µM (≈ 0.926 µg/mL) | MIC [2]: 2 µM (≈ 0.926 µg/mL) | MIC [3]: 2 µM (≈ 0.926 µg/mL) | MIC [4]: 1 µM (≈ 0.463 µg/mL) | MIC [5]: 2 µM (≈ 0.926 µg/mL) | MIC [6]: 2 µM (≈ 0.926 µg/mL) | MIC [7]: 2 µM (≈ 0.926 µg/mL) | MIC [8]: 2 µM (≈ 0.926 µg/mL) | MIC [9]: 1 µM (≈ 0.463 µg/mL) | MIC [10]: 1 µM (≈ 0.463 µg/mL) | MIC [11]: 2 µM (≈ 0.926 µg/mL) | MIC [12]: 2 µM (≈ 0.926 µg/mL)

O=C(NC12CC3CC(CC(C3)C1)C2)Oc1ccc(Cl)cc1C(=O)Nc1ccc(C(F)(F)F)cc1
MIC [1]: 1 µM (≈ 0.493 µg/mL) | MIC [2]: 1 µM (≈ 0.493 µg/mL) | MIC [3]: 1 µM (≈ 0.493 µg/mL) | MIC [4]: 0.5 µM (≈ 0.246 µg/mL) | MIC [5]: 0.5 µM (≈ 0.246 µg/mL) | MIC [6]: 1 µM (≈ 0.493 µg/mL) | MIC [7]: 1 µM (≈ 0.493 µg/mL) | MIC [8]: 1 µM (≈ 0.493 µg/mL) | MIC [9]: 0.5 µM (≈ 0.246 µg/mL) | MIC [10]: 1 µM (≈ 0.493 µg/mL) | MIC [11]: 0.5 µM (≈ 0.246 µg/mL) | MIC [12]: 1 µM (≈ 0.493 µg/mL)

O=C(NC1CCCCC1)Oc1ccc(Cl)cc1C(=O)Nc1ccc(C(F)(F)F)cc1
MIC [1]: 1 µM (≈ 0.441 µg/mL) | MIC [2]: 0.5 µM (≈ 0.22 µg/mL) | MIC [3]: 1 µM (≈ 0.441 µg/mL) | MIC [4]: 0.5 µM (≈ 0.22 µg/mL) | MIC [5]: 0.5 µM (≈ 0.22 µg/mL) | MIC [6]: 1 µM (≈ 0.441 µg/mL) | MIC [7]: 0.5 µM (≈ 0.22 µg/mL) | MIC [8]: 1 µM (≈ 0.441 µg/mL) | MIC [9]: 0.5 µM (≈ 0.22 µg/mL) | MIC [10]: 1 µM (≈ 0.441 µg/mL) | MIC [11]: 0.5 µM (≈ 0.22 µg/mL) | MIC [12]: 1 µM (≈ 0.441 µg/mL)

From ChEMBL document CHEMBL4406824, “Phenolic N-monosubstituted carbamates: Antitubercular and toxicity evaluation of multi-targeting compounds” (Eur J Med Chem, 2019)
